“And” between values parts separate entries of the source, which are not always exact repeats. Identical values can stand only once. Numbered stars: 1 amine (or outer) side, 2 acyl side, 3 side chain; on linkers, the order of the positions; unused ones are H or OH. Square brackets hold non-standard residues; d marks the D form. Peptide text beside a SMILES is read from it. * marks the point of attachment. C18 diacid = O=C(O)CCCCCCCCCCCCCCCCC(=O)*; γGlu = O=C(O)[C@H](CCC(=O)[*:2])N[*:1]; mTyr = N[C@@H](Cc1cccc(O)c1)C(=O)O; Cha = N[C@@H](CC1CCCCC1)C(=O)O; NMeL = CN[C@@H](CC(C)C)C(=O)O; hSer = N[C@@H](CCO)C(=O)O; Nle = CCCC[C@H](N)C(=O)O; AEEA = NCCOCCOCC(=O)O; βAla = NCCC(=O)O
What was measured:
Assay in all cases: IP3 assay (inositol trisphosphate, 3H-myoinositol) in transiently transfected COS-7 cells
Type in all cases: cell-based
hNK3R = molecular target: T1, hNK3R (Homo sapiens, UniProt P29371); conditions: COS-7 cells; for EC50: 0.2% ovalbumin buffer, read-out: hNK3, IP3 EC50; for hNK3, IP3 Efficacy: figure legends: percent of 10^-6 M NKA
T1 construct: host or cells: COS-7
T1 sequence (P29371 1-465): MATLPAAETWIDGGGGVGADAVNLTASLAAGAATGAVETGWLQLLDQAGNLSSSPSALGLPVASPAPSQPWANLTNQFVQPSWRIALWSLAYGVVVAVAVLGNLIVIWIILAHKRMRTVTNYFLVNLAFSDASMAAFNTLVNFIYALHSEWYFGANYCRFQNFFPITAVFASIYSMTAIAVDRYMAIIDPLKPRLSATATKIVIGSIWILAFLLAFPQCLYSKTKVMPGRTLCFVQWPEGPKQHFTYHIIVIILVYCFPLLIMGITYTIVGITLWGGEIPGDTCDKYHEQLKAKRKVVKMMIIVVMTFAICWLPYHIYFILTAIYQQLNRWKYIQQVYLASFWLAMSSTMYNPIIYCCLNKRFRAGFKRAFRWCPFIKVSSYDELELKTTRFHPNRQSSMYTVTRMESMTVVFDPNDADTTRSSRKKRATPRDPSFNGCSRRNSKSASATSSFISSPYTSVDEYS
Description: (§1) Agonist-induced G-protein coupled receptor (GPCR) activation was measured by an Inositol-1,4,5-Trisphosphate [^3H] Radioreceptor Assay (IPs Assay). Assays were carried out using COS-7 cells transiently transfected by calcium phosphate transfection with a vector pcDNA3.1(+) encoding one of the indicated receptors (Genscript). Briefly, DNA mixed with CaCl2 (2 M) and TE-buffer (10 mM Tris-HCl, 1 mM EDTA, pH 7.5) was dropwise added to 2×HBS (50 mM HEPES, 280 mM NaCl, 1.5 mM NaH2PO4, pH 7.2) and incubated for 45 min at room temperature (22±2° C.). The mixture and a final concentration of 100 μM Chloroquine were added to the cells and left to incubate for 5 hours at 37° C. under standard cell culture conditions (10% CO2) before changing medium to fresh medium containing 5 μl/mL Myo-[2-^3H(N)]-inositol (labelling medium).
(§2) The IP3 assay takes advantage of the tachykinin receptors' ability to induce production of the inositol trisphosphate (IP3) second messenger upon agonist (ligand) binding on receptor expressing cells following an initial ^3H-inositol labelling period. In effect this means that production of the second messenger IP3 as a measure of receptor activity can be assessed by counting ^3H-activity.
(§3) Assay solutions used: Wash buffer (HBSS), Assay buffer (HBSS+10 mM LiCl and 0,2% w/v ovalbumin), Lysis buffer (10 mM formic acid), and SPA YSI beads (12.5 mg/ml in H2O). The assay was performed the day after transfection. Briefly, labelling medium was aspirated, and plates were washed ×1 in wash buffer before adding 100 μl assay buffer, pre-incubated for 30 min followed by 120 min incubation with agonist, both at 37° C. After incubation, plates were immediately placed on ice and the incubation medium was aspirated and 40 μl of 10 mM formic acid per well was added. Plates were incubated for at least 30 min on ice. 60 μl (1 mg/well) SPA YSI beads/well was pipetted into a solid white 96 wells plate and 35 μl of the lysis solution was transferred to the plate before covering plates with seal cover and shaking for 10 min. (max speed). Centrifuge plates and leave for 8 hours at room temperature before counting the plates in a MicroBeta plate counter (Perkin Elmer).

hNK1R = molecular target: T2, hNK1R (Homo sapiens, UniProt P25103); conditions: COS-7 cells; for EC50: 0.2% ovalbumin buffer; for hNK1R, IP3 Efficacy: figure legends: percent of 10^-6 M NKA
T2 construct: host or cells: COS-7
Description: as §1, §2, §3

hNK2R = molecular target: T3, hNK2R (Homo sapiens, UniProt P21452); conditions: for EC50 / hNK2R, IP3 Efficacy: COS-7 cells; for EC50: 0.2% ovalbumin buffer; for hNK2R, IP3 Efficacy: figure legends: percent of 10^-6 M NKA
T3 construct: host or cells: COS-7
T3 sequence (P21452 1-398): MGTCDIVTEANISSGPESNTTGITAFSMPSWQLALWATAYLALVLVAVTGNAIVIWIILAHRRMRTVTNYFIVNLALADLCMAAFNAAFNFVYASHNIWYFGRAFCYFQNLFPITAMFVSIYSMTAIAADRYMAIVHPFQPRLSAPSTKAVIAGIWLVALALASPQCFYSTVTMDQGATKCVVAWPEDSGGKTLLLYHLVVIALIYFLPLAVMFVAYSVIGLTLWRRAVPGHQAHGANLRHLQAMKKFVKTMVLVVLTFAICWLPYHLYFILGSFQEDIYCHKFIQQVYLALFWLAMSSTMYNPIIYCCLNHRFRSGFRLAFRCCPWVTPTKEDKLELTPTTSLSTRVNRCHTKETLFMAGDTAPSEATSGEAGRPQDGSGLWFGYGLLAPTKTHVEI
Description: as §1, §2, §3

T2 sequence (P25103 whole entry): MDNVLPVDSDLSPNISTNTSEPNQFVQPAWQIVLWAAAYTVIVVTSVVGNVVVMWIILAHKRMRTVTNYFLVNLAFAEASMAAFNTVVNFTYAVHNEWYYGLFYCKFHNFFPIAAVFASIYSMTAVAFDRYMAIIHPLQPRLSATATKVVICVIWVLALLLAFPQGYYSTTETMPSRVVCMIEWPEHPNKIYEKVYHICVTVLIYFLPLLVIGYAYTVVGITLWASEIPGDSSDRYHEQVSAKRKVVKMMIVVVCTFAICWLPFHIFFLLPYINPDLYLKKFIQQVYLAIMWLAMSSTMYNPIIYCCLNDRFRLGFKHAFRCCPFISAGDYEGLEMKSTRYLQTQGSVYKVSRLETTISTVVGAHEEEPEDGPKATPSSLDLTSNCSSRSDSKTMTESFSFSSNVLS

Compound | EC50 (hNK3R) [nM] | hNK3, IP3 Efficacy (hNK3R) | EC50 (hNK1R) | hNK1R, IP3 Efficacy (hNK1R) | EC50 (hNK2R) | hNK2R, IP3 Efficacy (hNK2R) | hNK2R receptor activation, in words (hNK2R)
CCCC[C@H](NC(=O)[C@H](CC(C)C)N(C)C(=O)CNC(=O)[C@@H](NC(=O)[C@H](Cc1cccc(O)c1)NC(=O)[C@H](CCCCN)NC(=O)[C@H](CC(=O)O)NC(=O)COCCOCCNC(=O)COCCOCCNC(=O)CC[C@H](NC(=O)CCCCCCCCCCCCCCCCC(=O)O)C(=O)O)C(C)C)C(N)=O [compound 361, *Asp;Lys;3-OH-Phe;Val;Gly;NmLeu;Nle;NH2] ({C18 diacid-γGlu-AEEA-AEEA}-DK[mTyr]VG[NMeL][Nle]-NH2) | ~47000 | 60% | 200 nM | 70% | 2.3 nM | 100% | 
CCCC[C@H](NC(=O)[C@H](CC(C)C)N(C)C(=O)CNC(=O)[C@@H](NC(=O)[C@H](Cc1ccccc1)NC(=O)[C@H](CCCNC(=N)N)NC(=O)[C@H](CC(=O)O)NC(=O)COCCOCCNC(=O)COCCOCCNC(=O)CC[C@H](NC(=O)CCCCCCCCCCCCCCCCC(=O)O)C(=O)O)C(C)C)C(N)=O [compound 306, *Asp;Arg;Phe;Val;Gly;NmLeu;Nle;NH2] ({C18 diacid-γGlu-AEEA-AEEA}-DRFVG[NMeL][Nle]-NH2) | 36 | 65% | 19 nM | 80% | 2 nM | 90% | 
*Asp;Lys;dPhe;Val;Gly;NmLeu;Nle;NH2 (DKFVGLL; N-terminal Conj-Neu-C18DA protractor; C-terminal amide; (1)..(1) Conj-Neu-C18; MOD_RES (3)..(3) D-Phe; MOD_RES (6)..(6) N-methyl-Leucine; MOD_RES (7)..(7) AMIDATION; MOD_RES (7)..(7) Nle) [compound 356, * is Conj-Neu-C18DA protractor on N-terminal α-amino group] |  | 0% |  | 0% |  | 0% | completely destroys NK2R activation
CCCC[C@H](NC(=O)[C@H](CC(C)C)N(C)C(=O)CNC(=O)[C@H](CCCNC(=N)N)NC(=O)[C@H](Cc1ccc(O)cc1)NC(=O)[C@H](CCCCN)NC(=O)[C@H](CCC(=O)O)NC(=O)COCCOCCNC(=O)COCCOCCNC(=O)CC[C@H](NC(=O)CCCCCCCCCCCCCCCCC(=O)O)C(=O)O)C(N)=O [compound 314, *Glu;Lys;Tyr;Arg;Gly;NmLeu;Nle;NH2] ({C18 diacid-γGlu-AEEA-AEEA}-EKYRG[NMeL][Nle]-NH2) |  | 0% |  | 0% | ~3100 nM | 45% | 
CC(C)C[C@@H](C(=O)N[C@@H](CC1CCCCC1)C(N)=O)N(C)C(=O)CNC(=O)[C@@H](NC(=O)[C@H](Cc1ccc(O)cc1)NC(=O)[C@H](CCCCN)NC(=O)[C@H](CC(=O)O)NC(=O)COCCOCCNC(=O)COCCOCCNC(=O)CC[C@H](NC(=O)CCCCCCCCCCCCCCCCC(=O)O)C(=O)O)C(C)C [compound 313, *Asp;Lys;Tyr;Val;Gly;NmLeu;cHexAla;NH2] ({C18 diacid-γGlu-AEEA-AEEA}-DKYVG[NMeL][Cha]-NH2) |  | 0% |  | 20% | 23 nM | 70% | 
COCC[C@H](NC(=O)[C@H](CC(C)C)N(C)C(=O)CNC(=O)[C@@H](NC(=O)[C@H](Cc1ccccc1)NC(=O)[C@H](CCCCN)NC(=O)[C@H](CC(=O)O)NC(=O)COCCOCCNC(=O)COCCOCCNC(=O)CC[C@H](NC(=O)CCCCCCCCCCCCCCCCC(=O)O)C(=O)O)C(C)C)C(N)=O [compound 384, *Asp;Lys;Phe;Val;Gly;NmLeu;Metox;NH2] ({C18 diacid-γGlu-AEEA-AEEA}-DKFVG[NMeL][hSer](Me)-NH2) | 10 | 85% | 16 nM | 80% | 0.9 nM | 95% | 
CCCC[C@H](NC(=O)[C@H](CC(C)C)N(C)C(=O)CNC(=O)[C@@H](NC(=O)[C@H](Cc1ccc(O)cc1)NC(=O)[C@H](CCCNC(=N)N)NC(=O)[C@H](CCC(=O)O)NC(=O)COCCOCCNC(=O)COCCOCCNC(=O)CC[C@H](NC(=O)CCCCCCCCCCCCCCCCC(=O)O)C(=O)O)C(C)C)C(N)=O [compound 357, *Glu;Arg;Tyr;Val;Gly;NmLeu;Nle;NH2] ({C18 diacid-γGlu-AEEA-AEEA}-ERYVG[NMeL][Nle]-NH2) |  | 10% |  | 50% | 6.5 nM | 90% | 
CCCC[C@H](NC(=O)[C@H](CC(C)C)NC(=O)CCNC(=O)[C@@H](NC(=O)[C@H](Cc1ccccc1)NC(=O)[C@H](CO)NC(=O)[C@H](CC(=O)O)NC(=O)[C@@H](NC(=O)[C@H](CCCCN)NC(=O)COCCOCCNC(=O)COCCOCCNC(=O)CC[C@H](NC(=O)CCCCCCCCCCCCCCCCC(=O)O)C(=O)O)[C@@H](C)O)C(C)C)C(N)=O [compound 322, *Lys;Thr;Asp;Ser;Phe;Val;bAla;Leu;Nle;NH2] ({C18 diacid-γGlu-AEEA-AEEA}-KTDSFV[βAla]L[Nle]-NH2) | ~160 | 80% |  | 0% | ~130 nM | 53% | 
CCCC[C@H](NC(=O)[C@H](CC(C)C)NC(=O)CNC(=O)[C@@H](NC(=O)[C@H](Cc1ccccc1)NC(=O)[C@H](CCCCN)NC(=O)[C@H](CC(=O)O)NC(=O)COCCOCCNC(=O)COCCOCCNC(=O)CC[C@H](NC(=O)CCCCCCCCCCCCCCCCC(=O)O)C(=O)O)C(C)C)C(N)=O [compound 389, *Asp;Lys;Phe;Val;Gly;Leu;Nle;NH2] | 35 | 100% and 60% | 16 nM and 15 nM | 108% and 100% | 2.8 nM and 2.9 nM | 83% and 80% | 
COCC[C@H](NC(=O)[C@H](CC(C)C)N(C)C(=O)CNC(=O)[C@@H](NC(=O)[C@H](Cc1ccc(O)cc1)NC(=O)[C@H](CCCCN)NC(=O)[C@H](CCC(=O)O)NC(=O)COCCOCCNC(=O)COCCOCCNC(=O)CC[C@H](NC(=O)CCCCCCCCCCCCCCCCC(=O)O)C(=O)O)[C@@H](C)O)C(N)=O [compound 381, *Glu;Lys;Tyr;Thr;Gly;NmLeu;Metox;NH2] ({C18 diacid-γGlu-AEEA-AEEA}-EKYTG[NMeL][hSer](Me)-NH2) |  | 0% |  | 0% | 9.3 nM | 85% | 
